Measurements published in ChEMBL document CHEMBL4507317, “Data for DCP probe BAY-899” (2021).

How the values were obtained:
[1] = target: Ribosomal protein S6 kinase alpha-3 (Homo sapiens) (UniProt P51812); conditions: Compound concentration 1000.0 nM
[2] = target: MAP kinase-activated protein kinase 2 (Homo sapiens) (UniProt P49137); conditions: Compound concentration 1000.0 nM
[3] = target: Beta-2 adrenergic receptor (Homo sapiens) (UniProt P07550); conditions: Compound concentration 10.0 uM
[4] = target: Serine/threonine-protein kinase haspin (Homo sapiens) (UniProt Q8TF76); conditions: Compound concentration 1000.0 nM
[5] = target: Aurora kinase B (Homo sapiens) (UniProt Q96GD4); conditions: Compound concentration 1000.0 nM
[6] = target: 3-phosphoinositide-dependent protein kinase 1 (Homo sapiens) (UniProt O15530); conditions: Compound concentration 1000.0 nM
[7] = target: Insulin-like growth factor 1 receptor (Homo sapiens) (UniProt P08069); conditions: Compound concentration 1000.0 nM
Chain of Insulin-like growth factor 1 receptor (Homo sapiens) (P08069 31-736 limits assumed): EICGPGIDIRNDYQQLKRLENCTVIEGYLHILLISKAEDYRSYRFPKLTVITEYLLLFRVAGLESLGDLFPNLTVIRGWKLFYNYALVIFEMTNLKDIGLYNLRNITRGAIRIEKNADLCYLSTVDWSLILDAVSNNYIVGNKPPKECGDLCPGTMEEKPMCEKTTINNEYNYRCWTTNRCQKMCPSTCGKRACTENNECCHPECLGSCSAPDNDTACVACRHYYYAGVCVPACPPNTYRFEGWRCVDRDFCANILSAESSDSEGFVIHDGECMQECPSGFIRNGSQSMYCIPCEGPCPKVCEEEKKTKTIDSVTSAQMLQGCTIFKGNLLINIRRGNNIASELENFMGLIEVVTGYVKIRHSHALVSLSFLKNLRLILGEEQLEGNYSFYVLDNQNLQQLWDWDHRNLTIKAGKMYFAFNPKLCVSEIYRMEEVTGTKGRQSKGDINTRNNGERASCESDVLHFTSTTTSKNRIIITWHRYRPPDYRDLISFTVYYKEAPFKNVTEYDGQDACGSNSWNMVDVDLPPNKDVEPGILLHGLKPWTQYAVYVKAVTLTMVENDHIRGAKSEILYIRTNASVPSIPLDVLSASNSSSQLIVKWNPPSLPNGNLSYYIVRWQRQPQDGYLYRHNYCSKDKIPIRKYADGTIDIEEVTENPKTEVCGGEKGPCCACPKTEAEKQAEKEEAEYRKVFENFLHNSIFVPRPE
Chain of Insulin-like growth factor 1 receptor (Homo sapiens) (P08069 741-1367 limits assumed): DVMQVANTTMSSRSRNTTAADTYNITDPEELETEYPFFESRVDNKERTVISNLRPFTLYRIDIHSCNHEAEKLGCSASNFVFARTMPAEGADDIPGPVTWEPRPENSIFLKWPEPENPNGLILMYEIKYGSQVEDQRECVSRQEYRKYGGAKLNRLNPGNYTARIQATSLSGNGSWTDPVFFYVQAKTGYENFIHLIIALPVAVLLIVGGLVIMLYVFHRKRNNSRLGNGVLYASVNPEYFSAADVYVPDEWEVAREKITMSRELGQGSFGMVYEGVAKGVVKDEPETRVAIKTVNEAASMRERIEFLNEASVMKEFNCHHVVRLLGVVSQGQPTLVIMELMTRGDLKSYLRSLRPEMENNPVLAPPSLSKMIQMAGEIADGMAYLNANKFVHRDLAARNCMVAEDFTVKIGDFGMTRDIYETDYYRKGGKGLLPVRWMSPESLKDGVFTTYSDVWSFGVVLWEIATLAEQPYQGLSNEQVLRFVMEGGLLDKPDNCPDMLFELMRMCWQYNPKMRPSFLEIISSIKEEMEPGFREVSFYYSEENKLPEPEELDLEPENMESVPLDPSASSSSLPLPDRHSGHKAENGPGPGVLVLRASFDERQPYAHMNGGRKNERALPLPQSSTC

[8] = target: Activated CDC42 kinase 1 (Homo sapiens) (UniProt Q07912); conditions: Compound concentration 1000.0 nM
[9] = target: Mitogen-activated protein kinase kinase kinase 14 (Homo sapiens) (UniProt Q99558); conditions: Compound concentration 1000.0 nM
[10] = test system: Leucine-rich repeat serine/threonine-protein kinase 2 (Homo sapiens), Q5S007 [G2019S]; conditions: Compound concentration 1000.0 nM
[11] = target: Tyrosine-protein kinase JAK2 (Homo sapiens) (UniProt O60674); conditions: Compound concentration 1000.0 nM
Chain of Tyrosine-protein kinase JAK2 (Homo sapiens) (O60674 whole entry): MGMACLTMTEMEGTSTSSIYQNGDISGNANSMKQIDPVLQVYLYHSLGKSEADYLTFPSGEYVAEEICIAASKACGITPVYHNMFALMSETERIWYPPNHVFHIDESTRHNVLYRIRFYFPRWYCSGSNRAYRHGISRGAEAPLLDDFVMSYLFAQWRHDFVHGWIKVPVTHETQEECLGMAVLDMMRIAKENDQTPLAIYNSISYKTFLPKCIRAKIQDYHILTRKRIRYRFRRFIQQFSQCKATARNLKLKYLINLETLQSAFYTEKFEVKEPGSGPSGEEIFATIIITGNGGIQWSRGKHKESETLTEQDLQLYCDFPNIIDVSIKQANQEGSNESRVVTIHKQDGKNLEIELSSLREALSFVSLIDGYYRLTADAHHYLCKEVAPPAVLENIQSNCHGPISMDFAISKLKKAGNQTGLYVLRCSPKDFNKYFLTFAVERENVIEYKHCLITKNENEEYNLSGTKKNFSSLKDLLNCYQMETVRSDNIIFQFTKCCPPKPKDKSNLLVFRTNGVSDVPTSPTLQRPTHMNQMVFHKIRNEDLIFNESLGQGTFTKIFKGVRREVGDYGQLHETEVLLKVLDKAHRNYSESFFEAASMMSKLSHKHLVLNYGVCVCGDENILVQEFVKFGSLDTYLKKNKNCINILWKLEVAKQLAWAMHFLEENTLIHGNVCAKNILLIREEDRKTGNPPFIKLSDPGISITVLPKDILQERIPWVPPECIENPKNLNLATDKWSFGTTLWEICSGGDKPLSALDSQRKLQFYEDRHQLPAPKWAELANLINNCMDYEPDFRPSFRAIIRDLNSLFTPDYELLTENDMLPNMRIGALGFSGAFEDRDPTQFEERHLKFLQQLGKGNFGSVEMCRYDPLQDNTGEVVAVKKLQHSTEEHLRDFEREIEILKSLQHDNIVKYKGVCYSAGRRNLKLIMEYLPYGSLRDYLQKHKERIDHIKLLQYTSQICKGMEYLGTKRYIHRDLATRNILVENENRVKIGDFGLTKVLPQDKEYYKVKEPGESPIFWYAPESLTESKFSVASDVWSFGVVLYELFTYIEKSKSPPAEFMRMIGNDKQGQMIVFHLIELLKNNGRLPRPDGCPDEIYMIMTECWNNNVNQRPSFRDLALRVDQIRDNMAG

[12] = target: Serine/threonine-protein kinase mTOR (Homo sapiens) (UniProt P42345); conditions: Compound concentration 1000.0 nM
[13] = target: Serine/threonine-protein kinase TBK1 (Homo sapiens) (UniProt Q9UHD2); conditions: Compound concentration 1000.0 nM
[14] = target: Casein kinase I isoform gamma-2 (Homo sapiens) (UniProt P78368); conditions: Compound concentration 1000.0 nM
[15] = target: Dual specificity mitogen-activated protein kinase kinase 5 (Homo sapiens) (UniProt Q13163); conditions: Compound concentration 1000.0 nM
[16] = target: 5-hydroxytryptamine receptor 1B (Homo sapiens) (UniProt P28222); conditions: Compound concentration 10.0 uM
[17] = target: Mitogen-activated protein kinase 12 (Homo sapiens) (UniProt P53778); conditions: Compound concentration 1000.0 nM
[18] = target: Mast/stem cell growth factor receptor Kit (Homo sapiens) (UniProt P10721); conditions: Compound concentration 1000.0 nM
Chain of Mast/stem cell growth factor receptor Kit (Homo sapiens) (P10721 whole entry, canonical isoform): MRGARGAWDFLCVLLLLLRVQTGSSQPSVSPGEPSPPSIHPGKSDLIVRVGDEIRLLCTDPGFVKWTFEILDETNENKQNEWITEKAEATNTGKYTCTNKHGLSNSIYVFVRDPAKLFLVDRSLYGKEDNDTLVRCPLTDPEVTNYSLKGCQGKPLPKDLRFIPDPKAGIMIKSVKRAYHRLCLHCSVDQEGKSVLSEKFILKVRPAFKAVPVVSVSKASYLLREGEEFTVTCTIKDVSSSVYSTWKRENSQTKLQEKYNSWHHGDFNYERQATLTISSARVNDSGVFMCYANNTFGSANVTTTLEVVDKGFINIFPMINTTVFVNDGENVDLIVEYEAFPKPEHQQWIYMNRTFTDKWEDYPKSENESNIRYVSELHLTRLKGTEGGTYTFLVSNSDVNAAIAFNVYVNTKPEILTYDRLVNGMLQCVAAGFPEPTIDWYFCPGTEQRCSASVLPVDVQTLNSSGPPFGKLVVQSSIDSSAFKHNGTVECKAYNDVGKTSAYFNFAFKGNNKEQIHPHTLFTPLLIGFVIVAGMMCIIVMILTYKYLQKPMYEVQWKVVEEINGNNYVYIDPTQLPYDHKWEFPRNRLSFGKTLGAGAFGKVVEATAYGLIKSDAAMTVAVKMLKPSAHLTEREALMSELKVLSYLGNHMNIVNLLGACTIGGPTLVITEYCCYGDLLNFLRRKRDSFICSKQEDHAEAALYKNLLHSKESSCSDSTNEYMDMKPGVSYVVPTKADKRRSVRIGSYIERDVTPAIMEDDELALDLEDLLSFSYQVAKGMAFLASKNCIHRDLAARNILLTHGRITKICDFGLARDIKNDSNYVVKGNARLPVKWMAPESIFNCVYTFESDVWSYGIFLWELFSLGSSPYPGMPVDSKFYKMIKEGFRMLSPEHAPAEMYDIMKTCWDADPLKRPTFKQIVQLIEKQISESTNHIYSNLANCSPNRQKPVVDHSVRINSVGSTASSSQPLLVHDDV

[19] = test system: Phosphatidylinositol 4,5-bisphosphate 3-kinase catalytic subunit alpha isoform (Homo sapiens), P42336 [E542K]; conditions: Compound concentration 1000.0 nM
[20] = target: Mitogen-activated protein kinase kinase kinase 10 (Homo sapiens) (UniProt Q02779); conditions: Compound concentration 1000.0 nM
[21] = target: Tyrosine-protein kinase CSK (Homo sapiens) (UniProt P41240); conditions: Compound concentration 1000.0 nM
[22] = target: Serine/threonine-protein kinase SIK3 (Homo sapiens) (UniProt Q9Y2K2); conditions: Compound concentration 1000.0 nM
[23] = target: Serine/threonine-protein kinase N1 (Homo sapiens) (UniProt Q16512); conditions: Compound concentration 1000.0 nM
[24] = test system: Mast/stem cell growth factor receptor Kit (Homo sapiens), P10721 [V559D,T670I]; conditions: Compound concentration 1000.0 nM
Chain of Mast/stem cell growth factor receptor Kit (Homo sapiens), P10721 [V559D,T670I] (P10721 whole entry V559D/T670I): as the sequence (P10721 whole entry, canonical isoform) above, with V559D, T670I counted along it

[25] = target: Calcium/calmodulin-dependent protein kinase type II subunit delta (Homo sapiens) (UniProt Q13557); conditions: Compound concentration 1000.0 nM
[26] = target: Death-associated protein kinase 2 (Homo sapiens) (UniProt Q9UIK4); conditions: Compound concentration 1000.0 nM
[27] = target: RAC-beta serine/threonine-protein kinase (Homo sapiens) (UniProt P31751); conditions: Compound concentration 1000.0 nM
[28] = target: Serine/threonine-protein kinase Chk1 (Homo sapiens) (UniProt O14757); conditions: Compound concentration 1000.0 nM
[29] = target: Serine/threonine-protein kinase D2 (Homo sapiens) (UniProt Q9BZL6); conditions: Compound concentration 1000.0 nM
Chain of Serine/threonine-protein kinase D2 (Homo sapiens) (Q9BZL6 whole entry, canonical isoform): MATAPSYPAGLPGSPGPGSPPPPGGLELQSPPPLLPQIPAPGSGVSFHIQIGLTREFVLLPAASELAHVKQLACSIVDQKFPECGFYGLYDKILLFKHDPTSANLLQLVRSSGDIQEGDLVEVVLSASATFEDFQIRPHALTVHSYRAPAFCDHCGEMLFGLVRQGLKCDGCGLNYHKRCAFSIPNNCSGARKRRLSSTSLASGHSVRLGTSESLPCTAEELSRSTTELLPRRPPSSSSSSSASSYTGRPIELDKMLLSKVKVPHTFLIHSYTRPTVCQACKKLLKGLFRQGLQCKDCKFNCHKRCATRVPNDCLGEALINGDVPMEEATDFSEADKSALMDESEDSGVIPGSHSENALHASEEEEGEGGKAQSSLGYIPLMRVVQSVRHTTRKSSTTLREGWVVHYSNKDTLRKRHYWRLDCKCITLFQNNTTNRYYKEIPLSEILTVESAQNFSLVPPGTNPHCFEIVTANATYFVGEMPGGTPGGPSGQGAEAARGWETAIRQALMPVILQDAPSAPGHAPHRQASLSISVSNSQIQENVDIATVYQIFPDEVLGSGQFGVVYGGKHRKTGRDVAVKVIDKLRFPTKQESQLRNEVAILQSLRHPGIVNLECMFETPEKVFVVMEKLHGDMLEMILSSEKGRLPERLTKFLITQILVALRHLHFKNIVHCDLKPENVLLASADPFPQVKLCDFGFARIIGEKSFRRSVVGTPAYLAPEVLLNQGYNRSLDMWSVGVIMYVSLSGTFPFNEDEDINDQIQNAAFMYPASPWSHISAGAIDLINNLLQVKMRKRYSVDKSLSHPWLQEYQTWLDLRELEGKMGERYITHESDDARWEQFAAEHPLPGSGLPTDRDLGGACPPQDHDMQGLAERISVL

[30] = target: Casein kinase I isoform delta (Homo sapiens) (UniProt P48730); conditions: Compound concentration 1000.0 nM
[31] = target: Sigma intracellular receptor 2 (Homo sapiens, UniProt Q5BJF2); test: GPCRScan assay: inhibition of Sigma 2; design: radioligand conc. used [nm] 5.0, parental cells HEKT
[32] = target: Inhibitor of nuclear factor kappa-B kinase subunit epsilon (Homo sapiens) (UniProt Q14164); conditions: Compound concentration 1000.0 nM
[33] = target: Sodium-dependent serotonin transporter (Homo sapiens) (UniProt P31645); conditions: Compound concentration 10.0 uM
Chain of Sodium-dependent serotonin transporter (Homo sapiens) (P31645 whole entry, looked up): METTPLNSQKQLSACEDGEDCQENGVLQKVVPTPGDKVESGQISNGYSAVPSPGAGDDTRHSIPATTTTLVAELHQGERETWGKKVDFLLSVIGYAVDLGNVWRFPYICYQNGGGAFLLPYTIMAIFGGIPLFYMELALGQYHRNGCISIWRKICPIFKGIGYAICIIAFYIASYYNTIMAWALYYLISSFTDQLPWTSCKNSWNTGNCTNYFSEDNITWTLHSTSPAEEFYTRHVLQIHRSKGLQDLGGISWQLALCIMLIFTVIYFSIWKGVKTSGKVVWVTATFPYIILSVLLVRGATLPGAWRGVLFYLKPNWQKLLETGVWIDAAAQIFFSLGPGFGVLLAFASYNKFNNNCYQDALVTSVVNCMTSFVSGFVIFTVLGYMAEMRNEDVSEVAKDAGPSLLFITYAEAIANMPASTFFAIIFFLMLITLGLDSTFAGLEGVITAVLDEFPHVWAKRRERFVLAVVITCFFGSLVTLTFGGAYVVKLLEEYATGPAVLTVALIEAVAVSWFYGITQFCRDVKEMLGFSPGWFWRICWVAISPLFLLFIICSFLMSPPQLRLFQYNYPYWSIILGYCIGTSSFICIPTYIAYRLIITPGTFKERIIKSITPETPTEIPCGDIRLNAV

[34] = target: Calcium/calmodulin-dependent protein kinase type II subunit alpha (Homo sapiens) (UniProt Q9UQM7); conditions: Compound concentration 1000.0 nM
[35] = target: Mitogen-activated protein kinase 13 (Homo sapiens) (UniProt O15264); conditions: Compound concentration 1000.0 nM
[36] = target: Mitogen-activated protein kinase kinase kinase 3 (Homo sapiens) (UniProt Q99759); conditions: Compound concentration 1000.0 nM
[37] = target: SRSF protein kinase 1 (Homo sapiens) (UniProt Q96SB4); conditions: Compound concentration 1000.0 nM
[38] = target: Serine/threonine-protein kinase Nek1 (Homo sapiens) (UniProt Q96PY6); conditions: Compound concentration 1000.0 nM
[39] = target: Tyrosine-protein kinase receptor UFO (Homo sapiens) (UniProt P30530); conditions: Compound concentration 1000.0 nM
[40] = target: Calcium/calmodulin-dependent protein kinase type II subunit gamma (Homo sapiens) (UniProt Q13555); conditions: Compound concentration 1000.0 nM
[41] = target: Activin receptor type-1-like (Homo sapiens) (UniProt P37023); conditions: Compound concentration 1000.0 nM
[42] = target: Ephrin type-A receptor 4 (Homo sapiens) (UniProt P54764); conditions: Compound concentration 1000.0 nM
[43] = target: Ephrin type-B receptor 2 (Homo sapiens) (UniProt P29323); conditions: Compound concentration 1000.0 nM
[44] = target: Mitogen-activated protein kinase kinase kinase 5 (Homo sapiens) (UniProt Q99683); conditions: Compound concentration 1000.0 nM
[45] = target: Tyrosine-protein kinase Mer (Homo sapiens) (UniProt Q12866); conditions: Compound concentration 1000.0 nM

## O=C(Nc1ccc(Oc2ccc(F)cc2)cc1)N1CCc2ncccc2[C@H]1c1ccc(F)cc1 [BAY-897]
[1]
  residual activity: 84%
[2]
  residual activity: 98%
[3]
  inhibition: 25.6%
[4]
  residual activity: 85%
[5]
  residual activity: 89%
[6]
  residual activity: 88%
[7]
  residual activity: 100%
[8]
  residual activity: 99%
[9]
  residual activity: 61%
[10]
  residual activity: 100%
[11]
  residual activity: 100%
[12]
  residual activity: 100%
[13]
  residual activity: 81%
[14]
  residual activity: 98%
[15]
  residual activity: 81%
[16]
  inhibition: 18.8%
[17]
  residual activity: 94%
[18]
  residual activity: 97%
[19]
  residual activity: 71%
[20]
  residual activity: 100%
[21]
  residual activity: 100%
[22]
  residual activity: 100%
[23]
  residual activity: 100%
[24]
  residual activity: 85%
[25]
  residual activity: 89%
[26]
  residual activity: 100%
[27]
  residual activity: 96%
[28]
  residual activity: 100%
[29]
  residual activity: 100%
[30]
  residual activity: 90%
[31]
  Ki: 676 nM
[32]
  residual activity: 89%
[33]
  inhibition: 21.1%
[34]
  residual activity: 88%
[35]
  residual activity: 96%
[36]
  residual activity: 87%
[37]
  residual activity: 94%
[38]
  residual activity: 100%
[39]
  residual activity: 77%
[40]
  residual activity: 96%
[41]
  residual activity: 81%
[42]
  residual activity: 100%
[43]
  residual activity: 91%
[44]
  residual activity: 87%
[45]
  residual activity: 96%

## O=C(Nc1cnc(Oc2ccc(F)cc2)nc1)N1CCc2ncccc2[C@@H]1c1ccc(F)cc1 [BAY-899]
[1]
  residual activity: 97%
[2]
  residual activity: 80%
[3]
  inhibition: 25.3%
[4]
  residual activity: 93%
[5]
  residual activity: 80%
[6]
  residual activity: 97%
[7]
  residual activity: 100%
[8]
  residual activity: 93%
[9]
  residual activity: 100%
[10]
  residual activity: 100%
[11]
  residual activity: 84%
[12]
  residual activity: 100%
[13]
  residual activity: 87%
[14]
  residual activity: 96%
[15]
  residual activity: 83%
[16]
  inhibition: 36.4%
[17]
  residual activity: 96%
[18]
  residual activity: 100%
[19]
  residual activity: 81%
[20]
  residual activity: 77%
[21]
  residual activity: 100%
[22]
  residual activity: 86%
[23]
  residual activity: 95%
[24]
  residual activity: 84%
[25]
  residual activity: 92%
[26]
  residual activity: 91%
[27]
  residual activity: 100%
[28]
  residual activity: 84%
[29]
  residual activity: 85%
[30]
  residual activity: 100%
[31]
  Ki: 2050 nM
[32]
  residual activity: 98%
[33]
  inhibition: 25.5%
[34]
  residual activity: 92%
[35]
  residual activity: 100%
[36]
  residual activity: 97%
[37]
  residual activity: 100%
[38]
  residual activity: 84%
[39]
  residual activity: 76%
[40]
  residual activity: 80%
[41]
  residual activity: 99%
[42]
  residual activity: 88%
[43]
  residual activity: 87%
[44]
  residual activity: 84%
[45]
  residual activity: 100%
